Values quoted from earlier work as cited in patent US7807404B2, “Mutated truncated mt-pfkA gene for the synthesis of active shorter fragment of 6-phosphofructo-1-kinase” (Kemijski Institut, priority 2006, dated 2010).

Legend:
[1] = test system: PFK1; settings: citrate 10 mM
[2] = test system: PFK1 with 8 amino acid residues cleaved from the C-terminal part
[3] = target: T1, PFK1 (Oryctolagus cuniculus, UniProt P00511)
T1 construct: the enzyme, isolated from the rabbit muscle; host or cells: rabbit muscle
T1 sequence (P00511 2-780 limits assumed): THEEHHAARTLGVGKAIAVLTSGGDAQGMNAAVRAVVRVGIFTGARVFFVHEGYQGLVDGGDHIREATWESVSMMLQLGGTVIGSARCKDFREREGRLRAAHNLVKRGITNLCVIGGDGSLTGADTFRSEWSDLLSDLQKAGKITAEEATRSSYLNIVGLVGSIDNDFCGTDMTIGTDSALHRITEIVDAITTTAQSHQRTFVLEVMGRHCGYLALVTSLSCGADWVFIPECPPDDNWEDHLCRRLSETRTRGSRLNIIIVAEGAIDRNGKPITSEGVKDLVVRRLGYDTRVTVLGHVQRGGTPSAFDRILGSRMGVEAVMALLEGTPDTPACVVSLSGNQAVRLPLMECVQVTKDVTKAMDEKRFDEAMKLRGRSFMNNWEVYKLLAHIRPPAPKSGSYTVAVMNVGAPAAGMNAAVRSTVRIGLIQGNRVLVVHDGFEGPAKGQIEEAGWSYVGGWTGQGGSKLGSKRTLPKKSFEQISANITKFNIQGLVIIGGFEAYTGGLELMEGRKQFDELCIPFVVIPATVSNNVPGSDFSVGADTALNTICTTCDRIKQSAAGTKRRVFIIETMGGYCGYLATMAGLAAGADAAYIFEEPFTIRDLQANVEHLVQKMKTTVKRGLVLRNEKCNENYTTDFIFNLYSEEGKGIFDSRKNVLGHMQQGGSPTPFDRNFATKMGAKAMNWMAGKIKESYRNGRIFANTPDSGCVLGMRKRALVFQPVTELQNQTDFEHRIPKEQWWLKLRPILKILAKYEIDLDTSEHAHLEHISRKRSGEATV

[4] = target: T2, PFK1 (Aspergillus niger, UniProt P78985); settings: citrate 10 mM
T2 construct: The PFK1 isolated from Aspergillus niger cells; host or cells: Aspergillus niger cells
T2 sequence (P78985 whole entry): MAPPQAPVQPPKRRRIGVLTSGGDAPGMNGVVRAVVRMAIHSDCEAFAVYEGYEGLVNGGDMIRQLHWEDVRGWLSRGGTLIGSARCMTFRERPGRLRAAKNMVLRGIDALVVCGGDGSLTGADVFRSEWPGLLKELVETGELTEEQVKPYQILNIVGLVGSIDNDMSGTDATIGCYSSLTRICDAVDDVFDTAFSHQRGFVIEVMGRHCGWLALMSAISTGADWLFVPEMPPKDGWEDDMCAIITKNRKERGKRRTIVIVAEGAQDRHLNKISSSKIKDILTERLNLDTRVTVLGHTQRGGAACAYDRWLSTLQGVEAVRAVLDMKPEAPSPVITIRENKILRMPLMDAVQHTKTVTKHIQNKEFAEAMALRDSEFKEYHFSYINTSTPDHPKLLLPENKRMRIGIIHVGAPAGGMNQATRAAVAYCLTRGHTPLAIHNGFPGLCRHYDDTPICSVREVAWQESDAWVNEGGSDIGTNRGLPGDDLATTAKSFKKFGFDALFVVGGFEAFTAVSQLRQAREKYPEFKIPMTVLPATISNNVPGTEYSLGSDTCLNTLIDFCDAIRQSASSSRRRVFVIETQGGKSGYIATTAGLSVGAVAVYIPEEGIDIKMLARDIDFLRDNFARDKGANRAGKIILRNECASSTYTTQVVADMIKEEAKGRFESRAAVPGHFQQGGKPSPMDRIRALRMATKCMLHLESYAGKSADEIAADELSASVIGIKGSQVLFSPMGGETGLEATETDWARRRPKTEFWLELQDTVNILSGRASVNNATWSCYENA

SMILES: O=C(O)CC(O)(CC(=O)O)C(=O)O [citrate]
- maximal velocity retained [1]: 20%
- citrate concentration at which the enzyme lost its activity [2]: 10 mM
- citrate concentration at which the enzyme was completely inactivated [3]: 2.5 mM
- effect on catalytic activity [4]: almost prevented its catalytic activity
